Assay results: patent publication US20250044279A1, “CYTOTOXICITY ASSAY FOR DETECTING CELLULAR DAMAGE” (priority 2023, published 2025)

How the values were obtained:
C. albicans (SC5314) = assay: Infection of TR146-Nluc epithelial cells with C. albicans in the presence of antifungals; damage read out by Nluc and LDH in supernatant; assay type: cell-based; conditions: sub-MIC levels, supernatant 24 hours after infection; for protection of TR146-Nluc from C. albicans-induced cell damage, LDH assay: LDH readout, protective effect not reliably detected (FIG. 3D); for protection of TR146-Nluc from C. albicans-induced cell damage, Nluc assay: Nluc readout (FIG. 3D)
Protocol: (§1) In order to measure damage from cells seeded in 96-well plates, plates were centrifuged at 250×g for 10 minutes. Where indicated, 100 μl of supernatant was collected and stored at −20° C. for assaying on another day in the same week. For the luciferase assays, 5 μl supernatant was diluted with 95 μl PBS in white flat-opaque-bottomed 96-well plates (ThermoFisher). Then, 100 μl of 10 μM coelenterazine (in PBS) was added and luciferase activity measured immediately using a Tecan infinite M200 luminescence reader, with integration time of 100 ms and OD2 compensation. The OD2 neutral density filter attenuates high level light by a factor of 100.
The LDH cytotoxicity assay was performed according to instructions in the Roche Cytotoxicity Detection Kit with minor modifications. Briefly, 10 μl supernatant was diluted with 90 μl PBS in transparent-flat-bottomed 96-well plates, 100 μl of kit reagent mixture was added to each well, the plates were incubated in the dark for 15-20 minutes at room temperatures, and absorbance was measured with a Tecan absorbance reader at 492 nm (reference at 600 nm).
Infection of epithelial cells with Candida spp. strains Overnight cultures of Candida spp. strains in YPD, 1% peptone were diluted, washed in PBS, and counted using Neubauer counting chambers. The medium of confluent epithelial cells was replaced with a suspension of […] Candida spp. (MOI 1) in the appropriate cell culture medium (without FBS). The cells were incubated at 37° C. and 5% CO2 for 24 hours.
Stock solutions of the antifungal drugs, fluconazole (10 mg/ml) and voriconazole (10 mg/ml) were prepared in DMSO and stored at −20° C. A two-fold dilution series was prepared in DMEM/F12 cell culture medium for fluconazole (8-0.25 μg/ml) and voriconazole ([…]). Diluted drugs were transferred to TR146-Nluc cells seeded 48 hours prior, and infected with C. albicans (SC5314), as described above. Supernatant was collected 24 hours after infection to measure damage by LDH and Nluc.

Nluc = molecular target: T1, Nluc (Oplophorus gracilirostris, UniProt Q9GV45, A31E/A60N/A81I/F95D/I117V/K70R/L54V/L99Q/M102K/N193R/P142E/Q151K/Q38R/Q45L/V71I/Y165I); assay: Effect of pyruvate on Nluc enzyme activity in TR146-Nluc cell lysate; assay type: biochemical; conditions: 16-0.5 mM dilution series (FIG. 4C)
T1 construct: expressed in transfected cells; host or cells: TR146 human oral epithelial cells, lentivirally transduced with pSEW-NanoLuc-IRES-PuroR (Nluc gene amplified from Addgene plasmid #67178), lysed in 1% Triton X-100 in PBS
T1 sequence (Q9GV45 other isoform, or with tags, fused parts or gaps with the stated changes): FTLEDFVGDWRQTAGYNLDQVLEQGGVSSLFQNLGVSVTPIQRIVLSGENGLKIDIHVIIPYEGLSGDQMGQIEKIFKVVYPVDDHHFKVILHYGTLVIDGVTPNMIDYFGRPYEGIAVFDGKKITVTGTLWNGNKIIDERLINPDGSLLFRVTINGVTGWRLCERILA
Protocol: as §1
TR14-Nluc cells were detached with Accutase and resuspended in 5 ml PBS. Cells were counted and ≈1×10^4 cells/ml were resuspended in lysing buffer (1% Triton X-100 in PBS, pH 7.4).
To examine the effects of pyruvate on activity of LDH, a 2-fold dilution series for sodium pyruvate and lactate (16-0.5 mM) was prepared in lysis buffer, the lysate was incubated for 10 min at 37° C. and centrifuged at 10,000×g. The supernatant was collected to test LDH and luciferase enzyme activity.

| Compound | protection of TR146-Nluc from C. albicans-induced cell damage, LDH assay (C. albicans (SC5314)) | protection of TR146-Nluc from C. albicans-induced cell damage, Nluc assay (C. albicans (SC5314)) | effect on Nluc enzyme activity (Nluc) |
| --- | --- | --- | --- |
| C[C@@H](c1ncncc1F)[C@](O)(Cn1cncn1)c1ccc(F)cc1F [voriconazole] | not with LDH | protective effect | – |
| OC(Cn1cncn1)(Cn1cncn1)c1ccc(F)cc1F [fluconazole] | not with LDH | protective effect | – |
| CC(=O)C(=O)[O-].[Na+] [pyruvate, sodium pyruvate] | – | – | no discernible effect |
